Data reported in ChEMBL document CHEMBL4359901, “Cyclic enaminone as new chemotype for selective cyclooxygenase-2 inhibitory, anti-inflammatory, and analgesic activities” (Eur J Med Chem, 2019).

Key:
Rattus norvegicus [1] = experiment: Antiinflammatory activity in Sprague-Dawley rat model of carrageenan-induced thermal hyperalgesia assessed as paw withdrawal latency time at 50 mg/kg, po administered 1 hr prior to carrageenan challenge and measured after 4 hrs by planter test (reference value: 5.47 +/- 0.84 sec); assay type: functional
Rattus norvegicus [2] = experiment: Antiinflammatory activity in Sprague-Dawley rat model of carrageenan-induced thermal hyperalgesia assessed as paw withdrawal latency pressure at 30 mg/kg, po administered 1 hr prior to carrageenan challenge and measured after 2 hrs by Von-frey test (reference value: 146.47 +/- 5.12 g); assay type: functional
[3] = Antioxidant activity assessed as DPPH radical scavenging activity at 60 uM/ml incubated for 20 mins by spectrophotometric method relative to control; assay type: functional
Rattus norvegicus [4] = experiment: Antiinflammatory activity in Sprague-Dawley rat model of carrageenan-induced thermal hyperalgesia assessed as paw withdrawal latency pressure at 30 mg/kg, po administered 1 hr prior to carrageenan challenge and measured after 3 hrs by Randall-Selitto test (reference value: 176.84 +/- 8.1 g); assay type: functional
Rattus norvegicus [5] = experiment: Antiinflammatory activity in Sprague-Dawley rat model of carrageenan-induced thermal hyperalgesia assessed as paw withdrawal latency time at 50 mg/kg, po administered 1 hr prior to carrageenan challenge and measured after 3 hrs by planter test (reference value: 4.13 +/- 0.45 sec); assay type: functional
Rattus norvegicus [6] = experiment: Antiinflammatory activity in Sprague-Dawley rat model of carrageenan-induced thermal hyperalgesia assessed as paw withdrawal latency pressure at 30 mg/kg, po administered 1 hr prior to carrageenan challenge and measured after 2 hrs by Randall-Selitto test (reference value: 231.13 +/- 3.15 g); assay type: functional
Rattus norvegicus [7] = experiment: Antiinflammatory activity in Sprague-Dawley rat model of carrageenan-induced thermal hyperalgesia assessed as paw withdrawal latency time at 50 mg/kg, po administered 1 hr prior to carrageenan challenge and measured after 5 hrs by planter test (reference value: 7.5 +/- 0.74 sec); assay type: functional
[8] = Antioxidant activity assessed as DPPH radical scavenging activity incubated for 20 mins by spectrophotometric method; assay type: functional
Rattus norvegicus [9] = experiment: Analgesic activity in Wistar albino rat assessed as reaction time at 25 mg/kg, ip measured after 180 mins for 15 secs by hot plate method (reference value: 3.87 +/- 0.38 sec); assay type: functional
Rattus norvegicus [10] = experiment: Antiinflammatory activity in Wistar albino rat assessed as reduction in carrageenan-induced paw volume at 12.5 mg/kg, ip measured after 2 hrs by plethysmometric method (reference value: 1.58 +/- 0.21 ml); assay type: functional
Rattus norvegicus [11] = experiment: Analgesic activity in Wistar albino rat assessed as reaction time at 12.5 mg/kg, ip measured after 120 mins for 15 secs by hot plate method (reference value: 4.32 +/- 0.52 sec); assay type: functional
Rattus norvegicus [12] = experiment: Antiinflammatory activity in Sprague-Dawley rat model of carrageenan-induced thermal hyperalgesia assessed as paw withdrawal latency pressure at 50 mg/kg, po administered 1 hr prior to carrageenan challenge and measured after 3 hrs by Randall-Selitto test (reference value: 176.84 +/- 8.1 g); assay type: functional
Rattus norvegicus [13] = experiment: Antiinflammatory activity in Sprague-Dawley rat model of carrageenan-induced thermal hyperalgesia assessed as paw withdrawal latency pressure at 30 mg/kg, po administered 1 hr prior to carrageenan challenge and measured after 5 hrs by Randall-Selitto test (reference value: 224.08 +/- 7.12 g); assay type: functional
Rattus norvegicus [14] = experiment: Antiinflammatory activity in Sprague-Dawley rat model of carrageenan-induced thermal hyperalgesia assessed as paw withdrawal latency pressure at 30 mg/kg, po administered 1 hr prior to carrageenan challenge and measured after 1 hr by Von-frey test (reference value: 159.88 +/- 4.66 g); assay type: functional
Rattus norvegicus [15] = experiment: Analgesic activity in Wistar albino rat assessed as reaction time at 12.5 mg/kg, ip measured after 60 mins for 15 secs by hot plate method (reference value: 4.67 +/- 0.52 sec); assay type: functional
Rattus norvegicus [16] = experiment: Antiinflammatory activity in Wistar albino rat assessed as reduction in carrageenan-induced paw volume at 12.5 mg/kg, ip measured after 3 hrs by plethysmometric method (reference value: 1.75 +/- 0.33 ml); assay type: functional
Rattus norvegicus [17] = experiment: Antiinflammatory activity in Wistar albino rat assessed as reduction in carrageenan-induced paw edema at 25 mg/kg, ip measured after 2 hrs by plethysmometric method (reference value: 1.58 +/- 0.21 ml); assay type: functional
[18] = Selectivity index, ratio of IC50 for inhibition of ovine COX1 to IC50 for inhibition of recombinant human COX2
Rattus norvegicus [19] = experiment: Antiinflammatory activity in Wistar albino rat assessed as reduction in carrageenan-induced paw volume at 12.5 mg/kg, ip measured after 1 hr by plethysmometric method (reference value: 1.43 +/- 0.19 ml); assay type: functional
[20] = biological target: Prostaglandin G/H synthase 2 (Homo sapiens) (UniProt P35354); experiment: Inhibition of recombinant human COX2 assessed as reduction in PGF2alpha at 10 uM incubated for 2 mins using arachidonic acid as substrate by ELISA relative to control
Prostaglandin G/H synthase 2 (Homo sapiens), sequence (P35354 whole entry, looked up): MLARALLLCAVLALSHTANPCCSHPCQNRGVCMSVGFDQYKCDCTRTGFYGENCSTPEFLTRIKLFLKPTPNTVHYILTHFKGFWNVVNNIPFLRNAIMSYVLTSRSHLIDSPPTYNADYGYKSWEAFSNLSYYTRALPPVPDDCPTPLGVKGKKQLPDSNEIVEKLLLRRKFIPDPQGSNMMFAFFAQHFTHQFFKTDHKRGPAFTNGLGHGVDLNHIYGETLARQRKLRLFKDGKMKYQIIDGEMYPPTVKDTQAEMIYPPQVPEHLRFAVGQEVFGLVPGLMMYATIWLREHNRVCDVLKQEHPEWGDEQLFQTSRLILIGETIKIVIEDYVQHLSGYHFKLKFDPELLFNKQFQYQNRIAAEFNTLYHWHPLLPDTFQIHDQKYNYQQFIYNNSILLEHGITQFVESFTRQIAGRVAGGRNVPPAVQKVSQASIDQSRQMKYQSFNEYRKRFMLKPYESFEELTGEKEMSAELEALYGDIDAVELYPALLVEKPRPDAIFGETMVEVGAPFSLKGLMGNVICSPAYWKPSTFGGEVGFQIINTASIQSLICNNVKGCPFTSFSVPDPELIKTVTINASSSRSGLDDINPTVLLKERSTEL

Rattus norvegicus [21] = experiment: Antiinflammatory activity in Sprague-Dawley rat model of carrageenan-induced thermal hyperalgesia assessed as paw withdrawal latency time at 30 mg/kg, po administered 1 hr prior to carrageenan challenge and measured after 3 hrs by planter test (reference value: 4.13 +/- 0.45 sec); assay type: functional
[22] = Antioxidant activity assessed as DPPH radical scavenging activity at 100 uM/ml incubated for 20 mins by spectrophotometric method relative to control; assay type: functional
Rattus norvegicus [23] = experiment: Antiinflammatory activity in Sprague-Dawley rat model of carrageenan-induced thermal hyperalgesia assessed as paw withdrawal latency time at 30 mg/kg, po administered 1 hr prior to carrageenan challenge and measured after 1 hr by planter test (reference value: 8.88 +/- 0.52 sec); assay type: functional
Rattus norvegicus [24] = experiment: Antiinflammatory activity in Sprague-Dawley rat model of carrageenan-induced thermal hyperalgesia assessed as paw withdrawal latency pressure at 50 mg/kg, po administered 1 hr prior to carrageenan challenge and measured after 1 hr by Von-frey test (reference value: 159.88 +/- 4.66 g); assay type: functional
Rattus norvegicus [25] = experiment: Antiinflammatory activity in Sprague-Dawley rat model of carrageenan-induced thermal hyperalgesia assessed as paw withdrawal latency pressure at 30 mg/kg, po administered 1 hr prior to carrageenan challenge and measured after 4 hrs by Randall-Selitto test (reference value: 200.08 +/- 10.22 g); assay type: functional
Rattus norvegicus [26] = experiment: Antiinflammatory activity in Sprague-Dawley rat model of carrageenan-induced thermal hyperalgesia assessed as paw withdrawal latency pressure at 50 mg/kg, po administered 1 hr prior to carrageenan challenge and measured after 5 hrs by Randall-Selitto test (reference value: 224.08 +/- 7.12 g); assay type: functional
Rattus norvegicus [27] = experiment: Antiinflammatory activity in Sprague-Dawley rat model of carrageenan-induced thermal hyperalgesia assessed as paw withdrawal latency pressure at 50 mg/kg, po administered 1 hr prior to carrageenan challenge and measured after 1 hr by Randall-Selitto test (reference value: 246.55 +/- 1.05 g); assay type: functional
Rattus norvegicus [28] = experiment: Antiinflammatory activity in Sprague-Dawley rat model of carrageenan-induced thermal hyperalgesia assessed as paw withdrawal latency pressure at 30 mg/kg, po administered 1 hr prior to carrageenan challenge and measured after 4 hrs by Von-frey test (reference value: 146.61 +/- 1.58 g); assay type: functional

CC(=O)N(C1=CC(=O)CCC1)c1ccc(Cl)cc1
Time (Rattus norvegicus [1]): 9.58 s | Activity (Rattus norvegicus [2]): 157.83 g | Activity [3]: 65.3% | Activity (Rattus norvegicus [4]): 249.49 g | Time (Rattus norvegicus [5]): 8.38 s | Activity (Rattus norvegicus [6]): 262.26 g | Time (Rattus norvegicus [7]): 9.3 s | IC50 [8]: 48 µM | Time (Rattus norvegicus [9]): 11.88 s | Activity (Rattus norvegicus [10]): 1.26 mL | Time (Rattus norvegicus [11]): 10.15 s | Activity (Rattus norvegicus [12]): 263.26 g | Activity (Rattus norvegicus [13]): 264.48 g | Activity (Rattus norvegicus [14]): 166.7 g | Time (Rattus norvegicus [15]): 6.85 s | Activity (Rattus norvegicus [16]): 1.18 mL | Activity (Rattus norvegicus [17]): 1.2 mL | Ratio IC50 [18]: 109 | Activity (Rattus norvegicus [19]): 1.3 mL | inhibition [20]: 96.9% | Time (Rattus norvegicus [21]): 6.95 s | Activity [22]: 96.2% | Time (Rattus norvegicus [23]): 10.58 s | Activity (Rattus norvegicus [24]): 170 g | Activity (Rattus norvegicus [25]): 258.94 g | Activity (Rattus norvegicus [26]): 266.61 g | Activity (Rattus norvegicus [27]): 272.83 g | Activity (Rattus norvegicus [28]): 159.47 g
